Measurements taken from US10041115B2, “3′-OH unblocked, fast photocleavable terminating nucleotides and methods for nucleic acid sequencing” (LASERGEN, INC., priority 2011, dated 2018).

Columns and labels:
[1] = Photochemical cleavage assays of incorporated nucleotide analogs (365 nm UV light, DT50); type: physicochemical; settings: for DT50 in 1 mM NaN3, 50 mM DTT / DT50 in 1 mM NaN3, No DTT: 365 nm UV, 0.70 W/cm^2; for DT50 values: UV photochemical cleavage experiments
Protocol: As used herein, the term “DT50” refers to the amount of time required to cleavage 50% of the base analog incorporated in the primer-template complex.
To compare the rates of photochemical cleavage between the nucleotide analogs described here, a protocol was developed to deliver a daily light intensity output of 0.70±0.01 W/cm^2 to samples, see below.
The power supply was turned on for about 30 min prior to that of the lamp and recirculation bath as described by the manufacturer. The IR liquid filter was cooled to 9° C. Light intensity was determined using a model PM100 power meter (Thorlabs), a 1000 μm pinhole (Edmund Optics), a modified 0.5 mL Eppendorf tube cut in half, and a 3-axis manual translation stage (Newport), see FIG. 5. The half cut Eppendorf tube was positioned in front of the pinhole and power meter detector head to account for the geometric shape distortion of the light as it passes through a reaction solution. The translation stage was then used to align the tube/pinhole/detector device with the highest intensity from the arc beam.
To stabilize its output, the lamp was left on for one hour prior to intensity measurements. Thereafter, the measured power was adjusted by increasing the current from the power supply. In order to achieve intensity (I) of 0.70 W/cm^2, the measured power (P) was adjusted to ˜5.5 mW, according to the equation:
[formula] where r is the radius of pinhole.
The beam was then focused by placing an 0.5 mL Eppendorf tube into the sample holder, the tube of which was modified with an internal alignment card to provide reference lines for volume heights of 10 μL and 20 μL, see FIG. 5. The reference lines enabled the beam to be centered for a given reaction volume. Beam alignment was further verified by observing the mercury arc image of the lamp produced by the rear reflector. A second alignment card was placed into the rotating sample holder to view the image, which when properly aligned using the reflector would produce an inverted arc image on the arc gap itself. This step ensured that arc hotspots were not superimposed, which could cause overheating while maintaining a power output of ˜5.5 mW. The speed of the rotating sample holder was adjusted within a range of 1,200-1,350 rpm using a Nova-Strobe DA Plus stroboscope (Monarch Instrument) by adjusting the motor's torque with an adjustment screw.
Photochemical cleavage assays: Nucleotide analogs were incorporated using 10 μL reactions, as described for the PEP assays, at a final concentration of 100 nM. […] OligoTemplate-2, oligoTemplate-5, and oligoTemplate-4 each hybridized with BODIPY-FL labeled primer-1 were used for C^7-HOMedA, C^7-HOMedG, and HOMedU analogs, respectively. OligoTemplate-8 hybridized with BODIPY-FL labeled primer-3 was used to assay HOMedC analogs. Incorporated reactions were quenched with either 1 mM sodium azide solution; 1 mM sodium azide, 50 mM DTT solution; or reagents C-G (see key in FIG. 4), exposed to 365 nm ultraviolet (UV) light for various time points using our UV deprotector, and then placed on ice.

[2] = system: DNA synthesis; assay: Termination assays (incorporation and termination of DNA synthesis); type: biochemical; settings: 10 μM
Source text: Another class of 3′-OH unblocked nucleotides has been described by Mitra et al. (2003) and Turcatti et al. (2008), which rely on steric hindrance of the bulky dye group to stop incorporation after the addition of the first nucleotide. It is noted that the substituted 2-nitrobenzyl nucleotide analogs described by Wu et al. (2007), Litosh et al. (2011), and Gardner et al., 2012 cause termination of DNA synthesis without the requirement of bulky substituents such as fluorescent dyes. A further class of 3′-unblocked nucleotides has been described by Helicos Biosciences. These nucleotides use a second nucleoside or nucleotide analog that acts as an inhibitor of DNA synthesis (Bowers et al., 2009; U.S. Pat. No. 7,476,734). A significant difference in termination properties is observed when comparing compounds of the present invention with those described by Bowers. For example, Bowers et al. described pre-steady-state kinetics employing two-base homopolymer templates, for which kpol(+2) rates were measured for all of their 3′-OH unblocked ‘virtual’ terminators. Bowers et al. conducted their termination experiments at submicromolar nucleotide concentrations (i.e., from 100 to 250 nM), termination assays. In contrast, several compounds of the present invention were performed at 10 μM over the time course of 0.5 to 20 min. […]

[3] = Table 3, reversible terminators
[4] = Table 3, reversible terminators, [a] transient product considered as cleaved product
[5] = Table 2, C^7-HOMedG analogs, average ± 1SD, triplicate

SMILES	DT50 in 1 mM NaN3, 50 mM DTT [1, 3]	DT50 in 1 mM NaN3, No DTT [1, 4]	DT50 in 1 mM NaN3, 50 mM DTT [1, 5]	DT50 in 1 mM NaN3, No DTT [1, 5]	also measured
COc1ccc([N+](=O)[O-])c([C@@H](OCc2cn([C@H]3C[C@H](O)[C@@H](COP(=O)(O)OP(=O)(O)OP(=O)(O)O)O3)c3ncnc(N)c23)C(C)(C)C)c1 [dA.VI, 7-[(S)-1-(5-methoxy-2-nitrophenyl)-2,2-dimethyl-propyloxy]methyl-7-deaza-2′-deoxyadenosine-5′-triphosphate]	0.8 ± 0.1 s	0.8 ± 0.1^[a] sec			
Nc1nc(=O)n([C@H]2C[C@H](O)[C@@H](COP(=O)(O)OP(=O)(O)OP(=O)(O)O)O2)cc1COCc1ccccc1[N+](=O)[O-] [dC.I, 5-(2-nitrobenzyloxy)methyl-2′-deoxycytidine-5′-triphosphate]	1.6 ± 0.2 s	2.0 ± 0.3 s			DT50 values [1]: 2.0 s
CC(C)(C)[C@H](OCc1cn([C@H]2C[C@H](O)[C@@H](COP(=O)(O)OP(=O)(O)OP(=O)(O)O)O2)c(=O)nc1N)c1ccccc1[N+](=O)[O-] [dC.V, 5-[(S)-1-(2-nitrophenyl)-2,2-dimethyl-propyloxy]methyl-2′-deoxycytidine-5′-triphosphate]	1.0 ± 0.2 s	1.2 ± 0.1 s			
COc1ccc([N+](=O)[O-])c([C@@H](OCc2cn([C@H]3C[C@H](O)[C@@H](COP(=O)(O)OP(=O)(O)OP(=O)(O)O)O3)c(=O)nc2N)C(C)(C)C)c1 [dC.VI, 5-[(S)-1-(5-methoxy-2-nitrophenyl)-2,2-dimethyl-propyloxy]methyl-2′-deoxycytidine-5′-triphosphate]	0.6 ± 0.1 s	0.6 ± 0.1^[a] sec			
Nc1nc2c(c(COCc3ccccc3[N+](=O)[O-])cn2[C@H]2C[C@H](O)[C@@H](COP(=O)(O)OP(=O)(O)OP(=O)(O)O)O2)c(=O)[nH]1 [dG.I, 7-(2-nitrobenzyloxy)methyl-7-deaza-2′-deoxyguanosine-5′-triphosphate]	8.1 ± 0.2 s	9.2 ± 0.3 s	8.1 ± 0.2 s	9.2 ± 0.3 s	DT50 values [1]: 9.2 s
CC(C)(C)[C@H](OCc1cn([C@H]2C[C@H](O)[C@@H](COP(=O)(O)OP(=O)(O)OP(=O)(O)O)O2)c2nc(N)[nH]c(=O)c12)c1ccccc1[N+](=O)[O-] [dG.V, 7-[(S)-1-(2-nitrophenyl)-2,2-dimethyl-propyloxy]methyl-7-deaza-2′-deoxyguanosine-5′-triphosphate]	2.9 ± 0.2 s	3.0 ± 0.1 s			
CC(C)(C)C(OCc1cn([C@H]2C[C@H](O)[C@@H](COP(=O)(O)OP(=O)(O)OP(=O)(O)O)O2)c2nc(N)[nH]c(=O)c12)c1ccccc1[N+](=O)[O-] (stereo partly shown) [dG.V.a ds1, 7-[1-(2-nitrophenyl)-2,2-dimethyl-propyloxy]methyl-7-deaza-2′-deoxyguanosine-5′-triphosphate]			10.7 ± 0.2 s	11.0 ± 0.4 s	
COc1ccc([N+](=O)[O-])c(C(OCc2cn([C@H]3C[C@H](O)[C@@H](COP(=O)(O)OP(=O)(O)OP(=O)(O)O)O3)c3nc(N)[nH]c(=O)c23)C(C)(C)C)c1 (stereo partly shown) [dG.V.c ds1, 7-[1-(5-methoxy-2-nitrophenyl)-2,2-dimethyl-propyloxy]methyl-7-deaza-2′-deoxyguanosine-5′-triphosphate]			3.0 ± 0.1 s	3.5 ± 0.3 s	rate increases, dG.V.c compared with dG.V.a ([1]; same isomer (ds1 or ds2) of dG.V.c vs dG.V.a): 3.6 ×; faster photochemical cleavage rates compared with the corresponding 4-OMe isomers ([1]; α-tert-butyl C^7-HOMedG analogs, 5-OMe vs 4-OMe): 1.4 × fold
COc1ccc([N+](=O)[O-])c([C@@H](OCc2cn([C@H]3C[C@H](O)[C@@H](COP(=O)(O)OP(=O)(O)OP(=O)(O)O)O3)c3nc(N)[nH]c(=O)c23)C(C)(C)C)c1 [dG.VI, 7-[(S)-1-(5-methoxy-2-nitrophenyl)-2,2-dimethyl-propyloxy]methyl-7-deaza-2′-deoxyguanosine-5′-triphosphate]	0.8 ± 0.1 s	0.8 ± 0.1 s			
COc1ccc([N+](=O)[O-])c([C@@H](OCc2cn([C@H]3C[C@H](O)[C@@H](COP(=O)(O)OP(=O)(O)OP(=O)(O)O)O3)c(=O)[nH]c2=O)C(C)(C)C)c1 [dU.VI, 5-[(S)-1-(5-Methoxy-2-nitrophenyl)-2,2-dimethyl-propyloxy]methyl-2′-deoxyuridine-5′-triphosphate]	0.7 ± 0.1 s	0.7 ± 0.1^[a] sec			incorporated at the first base position ([2]; by 2 min): 100%; signal at the expected second-base position (termination of DNA synthesis) ([2]; incubation times up to 20 min): No appreciable signal could be detected
